Laboratory results published in patent US11666650B2, “Immune composition comprising respiratory syncytial virus (RSV) G polypeptide” (ADVACCINE (SUZHOU) BIOPHARMACEUTICALS CO. LTD., priority 2019, dated 2023).

Experiments:
[1] = test system: JAWSII cells; test: IL-1β inhibition in stimulated JAWSII cells; format: cell-based, mouse; conditions: immune regulator alone, LPS+Alum stimulated, 24 hours
Description: JAWSII cells (mouse bone marrow cells) were recovery from liquid nitrogen and put into a water bath at 37° C. The cells were washed twice with the MEM media. The recovered cells were cultured in 10 mL cMEM (MEM+20% FBS+5 ng/mL rmGM-CSF) for 5-7 days. The cells were ready for use after 2 passages.
The cell supernatant was collected for further analysis.
Each supernatant noted above was centrifuged under 12000 rpm at 4° C. for 5 minutes. The level of IL-1β (an immune active biomarker) was measured following the ELISA procedure provided below.
15. Calculate the IL-1β concentration of tested subject by standard curve. Inhibition percentage (%) was calculated as the percentage of the reduction of IL-1β level of each tested sample as compared with the positive control (LPS+Alum) and the blank control.

[2] = test system: red blood cell suspension; test: Hemolytic assay of formulations; format: cell-based, Mouse
Description: Mouse blood was collected and added with 800 μl of 15 mg/ml of EDTA to prevent the coagulation. It was centrifuged at 1,500 rpm for 15 min followed by discarding of the supernatant. The pellet was resuspended into 1 ml PBS, and centrifugated at 1,500 rpm for 15 min. The procedure was repeated for approximately 2 or 3 times until the supernatant became clear. The pellet containing red blood cells was resuspended with PBS at 1:10 to get 10% of red cell suspension after discarding supernatant, then further diluted into 2% with PBS. Five hundred microliters of 2% red blood cell suspension were mixed with 500 μl of different formulations, respectively, for a period of 180 minutes at 37° C. The hemolysis was recorded by a camera from the beginning to the end. After that, sample was centrifuged at 1,500 rpm for 2 min, the absorbance of supernatant was measured at OD405nm and the results were statistically analyzed.

Structure (SMILES)	inhibition (immune suppression) of IL-1β level [1]	hemolysis [2]
C=CC[C@@H]1/C=C(\C)C[C@H](C)C[C@H](OC)[C@H]2O[C@@](O)(C(=O)C(=O)N3CCCC[C@H]3C(=O)O[C@H](/C(C)=C/[C@@H]3CC[C@@H](O)[C@H](OC)C3)[C@H](C)[C@@H](O)CC1=O)[C@H](C)C[C@@H]2OC [FK506]	around 100%	–
CC(O)CO (stereo not drawn) [propylene glycol]	–	Various degrees of hemolysis
CO[C@H]1C[C@@H]2CC[C@@H](C)[C@@](O)(O2)C(=O)C(=O)N2CCCC[C@H]2C(=O)O[C@H]([C@H](C)C[C@@H]2CC[C@@H](O)[C@H](OC)C2)CC(=O)[C@H](C)/C=C(\C)[C@@H](O)[C@@H](OC)C(=O)[C@H](C)C[C@H](C)/C=C/C=C/C=C/1C [rapamycin]	around 60%	–
